Laboratory results published in US6737383B1, “Herbicidal oxadiazolidines” (priority 1999, dated 2004).

Key:
[1] = tested on: bedstraw; assay: Test B pre/postemergence bedstraw; type: in vivo, Galium aparine
Method in brief: (§1)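 Test chemicals in a non-phytotoxic solvent mixture with surfactant were sprayed preemergence onto planted seeds and postemergence onto plants 2 to 18 cm tall (1- to 4-leaf stage). After twelve to sixteen days in a greenhouse, injury was visually rated against untreated controls from 0 (no effect) to 10 (complete control).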

[2] = tested on: blackgrass; assay: Test B pre/postemergence blackgrass; type: in vivo, Alopecurus myosuroides
Method in brief: as §1

[3] = tested on: surinam grass; assay: Test B pre/postemergence surinam grass; type: in vivo, Brachiaria decumbens
Method in brief: as §1

[4] = tested on: cocklebur; assay: Test B pre/postemergence cocklebur; type: in vivo, Xanthium strumarium
Method in brief: as §1

[5] = tested on: corn; assay: Test B pre/postemergence corn; type: in vivo, Zea mays
Method in brief: as §1

[6] = tested on: crabgrass; assay: Test B pre/postemergence crabgrass; type: in vivo, Digitaria sanguinalis
Method in brief: as §1

[7] = tested on: giant foxtail; assay: Test B pre/postemergence giant foxtail; type: in vivo, Setaria faberii
Method in brief: as §1

[8] = tested on: morningglory; assay: Test B pre/postemergence morningglory; type: in vivo, Ipomoea hederacea
Method in brief: as §1

[9] = tested on: pigweed; assay: Test B pre/postemergence pigweed; type: in vivo, Amaranthus retroflexus
Method in brief: as §1

[10] = tested on: rape; assay: Test B pre/postemergence rape; type: in vivo, Brassica napus
Method in brief: as §1

[11] = tested on: soybean; assay: Test B pre/postemergence soybean; type: in vivo, Glycine max
Method in brief: as §1

[12] = tested on: sugar beet; assay: Test B pre/postemergence sugar beet; type: in vivo, Beta vulgaris
Method in brief: as §1

[13] = tested on: velvetleaf; assay: Test B pre/postemergence velvetleaf; type: in vivo, Abutilon theophrasti
Method in brief: as §1

[14] = tested on: wheat; assay: Test B pre/postemergence wheat; type: in vivo, Triticum aestivum
Method in brief: as §1

[15] = tested on: wild oat; assay: Test B pre/postemergence wild oat; type: in vivo, Avena fatua
Method in brief: as §1

[16] = tested on: purple nutsedge; assay: Test B pre/postemergence purple nutsedge; type: in vivo, Cyperus rotundus
Method in brief: as §1

[17] = tested on: rice; assay: Test B flood test rice; type: in vivo, Oryza sativa
Method in brief: (§2)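 Flood test on plants grown to the 2-leaf stage; treated plants kept in greenhouse twelve to sixteen days, then visually rated against controls on a 0 (no effect) to 10 (complete control) scale.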

[18] = tested on: smallflower flatsedge; assay: Test B flood test smallflower flatsedge; type: in vivo, Cyperus difformis
Method in brief: as §2

[19] = tested on: duck salad; assay: Test B flood test duck salad; type: in vivo, Heteranthera limosa
Method in brief: as §2

[20] = tested on: bamyardgrass; assay: Test B flood test barnyardgrass; type: in vivo, Echinochloa crus-galli
Method in brief: as §2

[21] = Postemergence, Rate 250 g/ha, scale 0 to 10, 0 is no effect, 10 is complete control
[22] = Preemergence, Rate 62 g/ha, scale 0 to 10 (0 no effect, 10 complete control)
[23] = Preemergence, Rate 250 g/ha, scale of 0 to 10 where 0 is no effect and 10 is complete control
[24] = Preemergence, Rate 500 g/ha, scale 0 to 10, 0 is no effect, 10 is complete control
[25] = Postemergence, Rate 500 g/ha, scale of 0 to 10 where 0 is no effect and 10 is complete control
[26] = Preemergence, Rate 125 g/ha, scale of 0 to 10 where 0 is no effect and 10 is complete control
[27] = Rate 62 g/ha, Postemergence, scale of 0 to 10 where 0 is no effect and 10 is complete control
[28] = Postemergence, Rate 125 g/ha, scale 0 to 10, 0 is no effect, 10 is complete control
[29] = Preemergence, Rate 250 g/ha, scale 0 to 10, 0 is no effect, 10 is complete control
[30] = Rate 62 g/ha, flood test species, Pre-emergence, visual evaluation after twelve to sixteen days
[31] = Rate 125 g/ha, under heading Pre-emergence, flood test species, visual evaluation after twelve to sixteen days
[32] = Rate 250 g/ha, Pre-emergence, flood-test species, scale 0 to 10, 0 is no effect, 10 is complete control

CC(C)N(C(=O)n1oc(=O)n(C(C)C2CC2)c1=O)c1ccc(F)cc1 (stereo not drawn) [Compound 404]
10: Bedstraw plant response rating [1, 23] | Bedstraw plant response rating [1, 24] | Plant response rating, Blackgrass [2, 21] | Blackgrass plant response rating [2, 25] | Blackgrass plant response rating [2, 24] | B. signalgrass plant response rating ([3]; Preemergence, Rate 500 g/ha, scale of 0 to 10 where 0 is no effect and 10 is complete control) | Plant response rating, Crabgrass [6, 22] | Plant response rating, Crabgrass [6, 26] | Crabgrass plant response rating [6, 29] | Crabgrass plant response rating [6, 24] | Plant response rating, Giant foxtail [7, 22] | Plant response rating, Giant foxtail [7, 26] | Giant foxtail plant response rating [7, 29] | Giant foxtail plant response rating [7, 24] | Morningglory plant response rating [8, 25] | Redroot pigweed plant response rating [9, 29] | Redroot pigweed plant response rating [9, 24] | Wild oats plant response rating [15, 29] | Wild oats plant response rating [15, 24]
2: Plant response rating, B. signalgrass [3, 28] | Plant response rating, B. signalgrass [3, 22] | B. signalgrass plant response rating [3, 27] | Plant response rating, Cocklebur [4, 28] | Plant response rating, Cocklebur [4, 21] | Plant response rating, Corn [5, 26] | Corn plant response rating [5, 29] | Plant response rating, Morningglory [8, 26] | Plant response rating, Redroot pigweed [9, 22] | Plant response rating, Wheat [14, 26]
4: Plant response rating, B. signalgrass [3, 26] | Morningglory plant response rating [8, 29] | Plant response rating, Rape [10, 21] | Plant response rating, Rape [10, 26] | Sugarbeets plant response rating [12, 25] | Wheat plant response rating [14, 29] | Plant response rating, Barnyardgrass (0 to 10 scale, 0 is no effect, 10 is complete control) [20, 30]
9: Blackgrass plant response rating [2, 23] | Plant response rating, Giant foxtail [7, 28] | Plant response rating, Giant foxtail [7, 21] | Giant foxtail plant response rating [7, 25] | Barnyardgrass plant response rating (0 to 10 scale, 0 is no effect, 10 is complete control) [20, 31] | Barnyardgrass plant response rating [20, 32]
0: Plant response rating, Bedstraw [1, 22] | Plant response rating, Cocklebur [4, 22] | Plant response rating, Cocklebur [4, 26] | Cocklebur plant response rating [4, 29] | Cocklebur plant response rating [4, 24] | Cocklebur plant response rating [4, 27] | Plant response rating, Corn [5, 28] | Plant response rating, Corn [5, 21] | Plant response rating, Corn [5, 22] | Corn plant response rating [5, 27] | Crabgrass plant response rating [6, 27] | Plant response rating, Morningglory [8, 22] | Plant response rating, Soybean [11, 22] | Plant response rating, Soybean [11, 26] | Soybean plant response rating [11, 29] | Plant response rating, Sugarbeets [12, 22] | Plant response rating, Velvetleaf [13, 21] | Plant response rating, Velvetleaf [13, 22] | Plant response rating, Wheat [14, 22] | Plant response rating, Nutsedge [16, 21] | Nutsedge plant response rating [16, 25] | Plant response rating, Nutsedge [16, 22] | Plant response rating, Nutsedge [16, 26] | Nutsedge plant response rating [16, 29] | Nutsedge plant response rating [16, 24] | Plant response rating, Rice (0 to 10 scale, 0 is no effect, 10 is complete control) [17, 30] | Rice plant response rating (0 to 10 scale, 0 is no effect, 10 is complete control) [17, 31] | Plant response rating, S. Flatsedge (0 to 10 scale, 0 is no effect, 10 is complete control) [18, 30] | S. Flatsedge plant response rating (0 to 10 scale, 0 is no effect, 10 is complete control) [18, 31] | Plant response rating, Ducksalad (0 to 10 scale, 0 is no effect, 10 is complete control) [19, 30]
6: Plant response rating, Blackgrass [2, 22] | B. signalgrass plant response rating [3, 25] | Corn plant response rating [5, 24] | Plant response rating, Redroot pigweed [9, 26] | Plant response rating, Soybean [11, 21] | Sugarbeets plant response rating [12, 29] | Velvetleaf plant response rating [13, 25]
3: Cocklebur plant response rating [4, 25] | Plant response rating, Crabgrass [6, 28] | Soybean plant response rating [11, 24] | Plant response rating, Sugarbeets [12, 26] | Wheat plant response rating [14, 25] | Plant response rating, Wild oats [15, 22]
5: Blackgrass plant response rating [2, 27] | Plant response rating, Crabgrass [6, 21] | Giant foxtail plant response rating [7, 27] | Morningglory plant response rating [8, 24] | Plant response rating, Redroot pigweed [9, 21] | Velvetleaf plant response rating [13, 29] | Wheat plant response rating [14, 24] | Ducksalad plant response rating [19, 32]
1: Corn plant response rating [5, 25] | Plant response rating, Rape [10, 22] | Plant response rating, Sugarbeets [12, 21] | Plant response rating, Velvetleaf [13, 26] | Ducksalad plant response rating (0 to 10 scale, 0 is no effect, 10 is complete control) [19, 31]
7: Plant response rating, Blackgrass [2, 26] | Plant response rating, Morningglory [8, 21] | Redroot pigweed plant response rating [9, 25] | Rape plant response rating [10, 29] | Soybean plant response rating [11, 25] | Velvetleaf plant response rating [13, 24] | Rice plant response rating [17, 32]
8: Plant response rating, Bedstraw [1, 21] | B. signalgrass plant response rating [3, 23] | Crabgrass plant response rating [6, 25] | Rape plant response rating [10, 25] | Rape plant response rating [10, 24] | Sugarbeets plant response rating [12, 24] | Wild oats plant response rating [15, 25] | Plant response rating, Wild oats [15, 26] | S. Flatsedge plant response rating [18, 32]
